For test [1], the target named is Human immunodeficiency virus type 1 protease (Human immunodeficiency virus 1, UniProt Q72874). The experiment in a line: Inhibition of HIV-1 protease using Abz-Thr-Ile-Nle-Phe-(p-NO2)-Gln-Arg-NH2 as substrate preincubated for 5 to 10 mins followed by substrate addition and measured after 1 hr by spectrofluorometric assay.
Test [2] concerns Human immunodeficiency virus 1. The experiment in a line: Antiviral activity against HIV-1 LAI infected in human MT2 cells reduction in virus-induced cytopathic effect measured after 7 days by MTT assay. The class given is functional, organism-based. The conditions noted are these: Human immunodeficiency virus 1, LAI, MT2, 168 h. (In general: Cytopathic effects are the visible damage that an infection or toxin causes in cultured cells.)

Molecules are shown by their SMILES.

The Ki is a measure of affinity in units of concentration, obtained from inhibition or displacement. `COc1ccc(S(=O)(=O)N(CC(C)C)C[C@@H](O)[C@H](Cc2ccccc2)NC(=O)O[C@H]2CC[C@@H]3C[C@H]4CO[C@@H](C(C)C)[C@@]42O3)cc1` showed a Ki in test [1] of 0.855 µM.
As a reminder, the EC50 is the midpoint of the concentration-response curve. For the compound `COc1ccc(S(=O)(=O)N(CC(C)C)C[C@@H](O)[C@H](Cc2ccccc2)NC(=O)O[C@@H]2CC[C@@H]3C[C@H]4CO[C@@H](C(C)C)[C@@]42O3)cc1`, the EC50 in test [2] is > 1 µM. In addition, in test [1], the affinity, expressed as Ki, was 0.62 µM.
On to `COc1ccc(S(=O)(=O)N(CC(C)C)C[C@@H](O)[C@H](Cc2ccccc2)NC(=O)O[C@@H]2CC[C@@H]3C[C@H]4CO[C@@H](C)[C@@]42O3)cc1`, for which, in test [2], the EC50 was > 1 µM. The compound also yielded a Ki in test [1] of 0.0206 µM.
The matching figures for `COc1ccc(S(=O)(=O)N(CC(C)C)C[C@@H](O)[C@H](Cc2ccccc2)NC(=O)O[C@H]2CC[C@@H]3C[C@H]4CO[C@@H](c5ccccc5)[C@@]42O3)cc1`: > 1 µM and 0.043 µM.
The matching figures for `COc1ccc(S(=O)(=O)N(CC(C)C)C[C@@H](O)[C@H](Cc2ccccc2)NC(=O)O[C@H]2CC[C@@H]3C[C@H]4CO[C@@H](C)[C@@]42O3)cc1`: 0.24 µM and 0.00165 µM.
The matching figures for `COc1ccc(S(=O)(=O)N(CC(C)C)C[C@@H](O)[C@H](Cc2ccccc2)NC(=O)O[C@@H]2CC[C@@H]3C[C@H]4CO[C@@H](c5ccccc5)[C@@]42O3)cc1`: > 1 µM and 1.3 µM.
Regarding `COc1ccc(S(=O)(=O)N(CC(C)C)C[C@@H](O)[C@H](Cc2ccccc2)NC(=O)O[C@@H]2CC[C@H]3C[C@@H]4CO[C@H](c5ccccc5)[C@]42O3)cc1`, in test [2], the EC50 is > 1 µM. Moreover, the Ki in test [1] came to 0.272 µM.
In the same order, the values of `COc1ccc(S(=O)(=O)N(CC(C)C)C[C@@H](O)[C@H](Cc2ccccc2)NC(=O)O[C@H]2CC[C@H]3C[C@@H]4CO[C@H](c5ccccc5)[C@]42O3)cc1` are > 1 µM and 0.424 µM.

The values are drawn from ChEMBL document CHEMBL6109060, “Potent HIV‑1 protease inhibitors containing oxabicyclo octanol-derived P2-ligands: Design, synthesis, and X‑ray structural studies of inhibitor-HIV-1 protease complexes” (Bioorg Med Chem Lett, 2025).
